# Reference: patent US20100305121A1, “NOVEL ANTAGONISTS OF THE HUMAN FATTY ACID SYNTHASE THIOESTERASE” (priority 2006, published 2010)
# Columns and labels:
# human FAS TE [1] = target: T1, human FAS TE (Homo sapiens, UniProt P49327); test: Kinetic characterization of inhibitors, 4-MUH turnover by FAS TE; format: biochemical
# T1 construct: Expression of the recombinant thioesterase domain of FAS using pTrcHis-TOPO vector (Invitrogen) was as described in Kridel et al. (2004); His tag (from pTrcHis-TOPO vector)
# FAS holoenzyme [2] = target: T2, FAS holoenzyme (Homo sapiens, UniProt P49327); test: Fatty acid synthesis in vitro, [14C] malonyl-CoA incorporation in MDA-MB-435 cell lysates; format: biochemical; settings: for effect on fatty acid biosynthesis in cell lysates: 6.3 to 50 μM
# T2 construct: Fatty acid synthesis by the FAS holoenzyme in cell lysates was measured by incorporation of; endogenous in cells; host or cells: MDA-MB-435 cell lysate
# Cytotoxicity, MTS assay = settings: human, MDA-MB-435 breast carcinoma cells, Cytotoxicity IC50 (μM), MDA-MB-435 cells
# human FAS TE [3] = target: T1, human FAS TE; test: Fluorogenic 4-MUH screening assay of recombinant FAS TE (primary and secondary screen); format: biochemical
# FAS holoenzyme [4] = target: T2, FAS holoenzyme; test: Activity-based probe FP-BODIPY labeling of FAS TE active site in MDA-MB-435 cell lysates; format: binding; settings: MB-MDA-435 cell lysates, 50 nM probe
# [5] = tested on: MDA-MB-435 breast carcinoma cells; test: Cytotoxicity, MTS assay; settings: read-out: Cytotoxicity IC50, MDA-MB-435 cells, 48 hours
# T2 sequence (P49327 2-2511 limits assumed): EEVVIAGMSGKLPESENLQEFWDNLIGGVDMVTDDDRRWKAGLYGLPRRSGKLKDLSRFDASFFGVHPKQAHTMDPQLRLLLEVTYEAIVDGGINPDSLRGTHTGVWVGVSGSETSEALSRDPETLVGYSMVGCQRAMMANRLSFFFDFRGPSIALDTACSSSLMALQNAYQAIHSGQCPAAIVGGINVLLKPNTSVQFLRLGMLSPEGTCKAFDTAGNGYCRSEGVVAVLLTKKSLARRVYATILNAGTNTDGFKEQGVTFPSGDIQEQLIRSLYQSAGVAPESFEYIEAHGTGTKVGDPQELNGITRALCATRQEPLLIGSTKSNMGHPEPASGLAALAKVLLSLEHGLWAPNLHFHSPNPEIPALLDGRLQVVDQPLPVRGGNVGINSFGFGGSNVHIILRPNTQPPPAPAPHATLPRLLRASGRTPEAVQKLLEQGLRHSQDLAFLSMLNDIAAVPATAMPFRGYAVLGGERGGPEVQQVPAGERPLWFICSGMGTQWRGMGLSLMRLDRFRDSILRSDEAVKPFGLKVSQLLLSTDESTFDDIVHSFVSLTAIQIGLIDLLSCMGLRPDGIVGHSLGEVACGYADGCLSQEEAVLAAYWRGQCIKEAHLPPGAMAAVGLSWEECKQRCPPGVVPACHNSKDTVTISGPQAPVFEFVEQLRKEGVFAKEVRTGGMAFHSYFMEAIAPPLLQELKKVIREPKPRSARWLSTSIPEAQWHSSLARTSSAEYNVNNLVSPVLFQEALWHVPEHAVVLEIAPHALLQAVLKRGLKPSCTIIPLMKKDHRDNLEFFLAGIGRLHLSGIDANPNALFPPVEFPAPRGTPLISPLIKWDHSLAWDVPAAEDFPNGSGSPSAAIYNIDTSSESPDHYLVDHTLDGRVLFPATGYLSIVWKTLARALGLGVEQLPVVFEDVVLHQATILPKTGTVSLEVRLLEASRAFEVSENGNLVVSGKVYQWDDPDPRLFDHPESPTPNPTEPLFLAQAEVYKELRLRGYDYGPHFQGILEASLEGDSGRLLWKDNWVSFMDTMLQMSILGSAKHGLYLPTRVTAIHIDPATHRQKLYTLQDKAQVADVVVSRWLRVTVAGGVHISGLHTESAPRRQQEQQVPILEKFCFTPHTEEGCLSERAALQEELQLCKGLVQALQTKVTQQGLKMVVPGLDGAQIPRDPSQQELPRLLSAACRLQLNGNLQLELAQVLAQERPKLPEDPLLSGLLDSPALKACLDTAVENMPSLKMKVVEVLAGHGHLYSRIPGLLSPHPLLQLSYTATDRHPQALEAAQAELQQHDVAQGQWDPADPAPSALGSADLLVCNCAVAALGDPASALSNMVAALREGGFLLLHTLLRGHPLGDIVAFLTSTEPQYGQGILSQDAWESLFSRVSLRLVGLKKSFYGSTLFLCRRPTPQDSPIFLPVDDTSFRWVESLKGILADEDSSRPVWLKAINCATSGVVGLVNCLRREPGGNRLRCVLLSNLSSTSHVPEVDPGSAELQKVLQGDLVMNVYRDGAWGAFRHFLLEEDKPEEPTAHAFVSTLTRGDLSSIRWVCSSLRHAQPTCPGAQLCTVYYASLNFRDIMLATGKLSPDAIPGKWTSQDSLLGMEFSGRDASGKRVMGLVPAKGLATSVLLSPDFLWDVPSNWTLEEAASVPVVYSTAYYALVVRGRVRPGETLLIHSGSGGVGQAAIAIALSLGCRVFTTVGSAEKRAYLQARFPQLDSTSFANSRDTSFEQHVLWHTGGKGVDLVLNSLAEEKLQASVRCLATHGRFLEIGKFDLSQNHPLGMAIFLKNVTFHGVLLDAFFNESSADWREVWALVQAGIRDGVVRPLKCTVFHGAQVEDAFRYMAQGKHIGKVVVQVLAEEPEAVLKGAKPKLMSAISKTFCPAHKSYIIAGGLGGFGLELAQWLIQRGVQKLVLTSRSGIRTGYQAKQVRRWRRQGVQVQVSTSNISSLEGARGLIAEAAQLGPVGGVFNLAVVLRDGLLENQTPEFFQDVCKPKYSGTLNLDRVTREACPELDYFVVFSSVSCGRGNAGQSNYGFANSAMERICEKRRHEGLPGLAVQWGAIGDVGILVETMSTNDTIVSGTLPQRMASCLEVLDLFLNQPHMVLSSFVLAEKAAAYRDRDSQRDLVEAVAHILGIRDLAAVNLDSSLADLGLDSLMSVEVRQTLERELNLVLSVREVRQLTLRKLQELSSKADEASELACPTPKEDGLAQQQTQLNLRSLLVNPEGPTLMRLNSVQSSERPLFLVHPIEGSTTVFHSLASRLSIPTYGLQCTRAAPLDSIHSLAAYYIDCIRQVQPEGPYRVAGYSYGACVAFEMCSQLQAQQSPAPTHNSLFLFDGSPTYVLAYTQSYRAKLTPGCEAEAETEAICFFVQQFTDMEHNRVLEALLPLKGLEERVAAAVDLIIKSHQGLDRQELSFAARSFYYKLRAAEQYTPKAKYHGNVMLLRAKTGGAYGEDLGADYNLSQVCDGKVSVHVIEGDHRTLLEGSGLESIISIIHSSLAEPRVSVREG
# T1 sequence (P49327 2207-2511 limits assumed): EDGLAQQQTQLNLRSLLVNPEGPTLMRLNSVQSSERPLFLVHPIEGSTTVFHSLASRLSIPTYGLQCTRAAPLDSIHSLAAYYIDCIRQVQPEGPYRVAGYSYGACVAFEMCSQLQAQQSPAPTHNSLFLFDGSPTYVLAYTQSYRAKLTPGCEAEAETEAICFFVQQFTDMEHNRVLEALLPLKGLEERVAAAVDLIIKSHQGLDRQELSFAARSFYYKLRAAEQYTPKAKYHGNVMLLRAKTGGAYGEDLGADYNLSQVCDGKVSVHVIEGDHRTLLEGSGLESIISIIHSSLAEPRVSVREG
structure (smiles),measurement,setting,value
"Cc1ccc(Br)c(-c2ccc(C=C3C(=O)NC(=S)NC3=O)o2)c1 [RDR019 (1), 5-((5-(2-bromo-5-methylphenyl)furan-2-yl)methylene)-2-thioxodihydropyrimidine-4,6(1H,5H)-dionc]",Ki,human FAS TE [1],0.11 µM
same,partial versus pure non-competitive inhibition (Km/Vmax(i) versus [I]),human FAS TE [1],partial non-competitive inhibitor
same,type of inhibition of FAS TE (double reciprocal plots),human FAS TE [1],non-competitive inhibitors
same,IC50,FAS holoenzyme [2],~20 µM
same,effect on fatty acid biosynthesis in cell lysates,FAS holoenzyme [2],completely abrogated fatty acid biosynthesis
same,IC50 at 48 h,"Cytotoxicity, MTS assay",20.6 µM
"CN(C)c1ccc(C/C=C2/C(=O)NC(=S)N(c3ccccc3F)C2=O)cc1 [RDR057 (10), (Z)-5-(2-(4-(dimethylamino)phenyl)ethylidene)-1-(2-fluorophenyl)-2-thioxodihydropyrimidine-4,6(1H,5H)-dione]",IC50,human FAS TE [3],4.3 µM
"CN1C(=O)NC(=O)/C(=C/c2ccc(-c3ccc([N+](=O)[O-])cc3Br)o2)C1=O [RDR102 (2), (Z)-5-((5-(2-bromo-4-nitrophenyl)furan-2-yl)methylene)-1-methylpyrimidine-2,4,6(1H,3H,5H)-trione]",Ki,human FAS TE [1],0.1 µM
same,concentration of complete inhibition of FP-BODIPY binding,FAS holoenzyme [4],approximately 50 μM
same,IC50,FAS holoenzyme [2],~20 µM
same,effect on fatty acid biosynthesis in cell lysates,FAS holoenzyme [2],completely abrogated fatty acid biosynthesis
same,IC50 at 48 h,"Cytotoxicity, MTS assay",14.2 µM
"COc1cccc(N2C(=O)NC(=O)/C(=C/C/C=C/c3ccccc3[N+](=O)[O-])C2=O)c1 [RDR203 (9), (Z)-1-(3-methoxyphenyl)-5-((E)-4-(2-nitrophenyl)but-3-enylidene)pyrimidine-2,4,6(1H,3H,5H)-trione]",IC50,human FAS TE [3],2 µM
"O=C1NC(=O)C(=Cc2ccc(-c3cc([N+](=O)[O-])ccc3O)o2)C(=O)N1 [RDR256 (5), 5-((5-(2-hydroxy-5-nitrophenyl)furan-2-yl)methylene)pyrimidine-2,4,6(1H,3H,5H)-trione]",IC50,human FAS TE [3],9.2 µM
"O=C1NC(=O)C(=Cc2ccc(-c3ccccc3C(=O)O)o2)C(=O)N1 [RDR317 (6), 2-(5-((2,4,6-trioxotetrahydropyrimidin-5(6H)-ylidene)methyl)furan-2-yl)benzoic acid]",IC50,human FAS TE [3],29 µM
"O=C1NC(=S)NC(=O)C1=Cc1ccc(-c2ccc(C(=O)O)cc2)o1 [RDR423 (4), 4-(5-((4,6-dioxo-2-thioxotetrahydropyrimidin-5(6H)-ylidene)methyl)furan-2-yl)benzoic acid]",IC50,human FAS TE [3],5.3 µM
"CCOc1ccc(C/C=C2/C(=O)NC(=O)N(c3ccc(OCC)cc3)C2=O)cc1 [RDR506 (11), (Z)-1-(4-ethoxyphenyl)-5-(2-(4-ethoxyphenyl)ethylidene)pyrimidine-2,4,6(1H,3H,5H)-trione]",IC50,human FAS TE [3],14.5 µM
"Cc1cccc(N2C(=O)NC(=O)/C(=C/Nc3ccccc3C)C2=O)c1 [RDR564 (12), (Z)-1-m-tolyl-5-((o-tolylamino)methylene)pyrimidine-2,4,6(1H,3H,5H)-trione]",IC50,human FAS TE [3],105 µM
"COc1ccc(N2C(=O)NC(=O)/C(=C/C/C=C/c3ccccc3)C2=O)c(OC)c1 [RDR755 (7), (Z)-1-(2,4-dimethoxyphenyl)-5-((E)-4-phenylbut-3-enylidene)pyrimidine-2,4,6(1H,3H,5H)-trione]",Ki,human FAS TE [1],0.12 µM
same,type of inhibition of FAS TE (double reciprocal plots),human FAS TE [1],non-competitive inhibitors
same,IC50 at 48 h,"Cytotoxicity, MTS assay",1.6 µM
same,IC50,[5],1.61 µM
"O=C1NC(=O)N(c2ccccc2)C(=O)/C1=C\C/C=C/c1ccccc1[N+](=O)[O-] [RDR914 (8), (Z)-5-((E)-4-(2-nitrophenyl)but-3-enylidene)-1 - phenylpyrimidine-2,4,6(1H,3H,5H)-trione]",IC50,human FAS TE [3],1.5 µM
same,IC50 at 48 h,"Cytotoxicity, MTS assay",9.5 µM
same,IC50,[5],9.53 µM
"COc1ccc(-c2ccc(C=C3C(=O)NC(=S)NC3=O)o2)c([N+](=O)[O-])c1 [RDR924 (3), 5-((5-(4-methoxy-2-nitrophenyl)furan-2-yl)methylene)-2-thioxodihydropyrimidine-4,6(1H,5H)-dione]",IC50,human FAS TE [3],4.4 µM
same,concentration of complete inhibition of FP-BODIPY binding,FAS holoenzyme [4],approximately 50 μM
